Results taken from patent US20240018123A1, “COMPOUND FOR INHIBITING OR DISINTEGRATING ANDROGEN RECEPTOR, AND PHARMACEUTICAL USE THEREOF” (KOREA RESEARCH INSTITUTE OF CHEMICAL TECHNOLOGY, priority 2020, published 2024).

Target: T1, Androgen receptor (AR) (Homo sapiens, UniProt P10275, T878A)
T1 construct: 5.5×10^5 LNCap cells were injected into each well of a 6-well plate; endogenous in cells; host or cells: LNCaP
T1 sequence (P10275 1-920 T878A): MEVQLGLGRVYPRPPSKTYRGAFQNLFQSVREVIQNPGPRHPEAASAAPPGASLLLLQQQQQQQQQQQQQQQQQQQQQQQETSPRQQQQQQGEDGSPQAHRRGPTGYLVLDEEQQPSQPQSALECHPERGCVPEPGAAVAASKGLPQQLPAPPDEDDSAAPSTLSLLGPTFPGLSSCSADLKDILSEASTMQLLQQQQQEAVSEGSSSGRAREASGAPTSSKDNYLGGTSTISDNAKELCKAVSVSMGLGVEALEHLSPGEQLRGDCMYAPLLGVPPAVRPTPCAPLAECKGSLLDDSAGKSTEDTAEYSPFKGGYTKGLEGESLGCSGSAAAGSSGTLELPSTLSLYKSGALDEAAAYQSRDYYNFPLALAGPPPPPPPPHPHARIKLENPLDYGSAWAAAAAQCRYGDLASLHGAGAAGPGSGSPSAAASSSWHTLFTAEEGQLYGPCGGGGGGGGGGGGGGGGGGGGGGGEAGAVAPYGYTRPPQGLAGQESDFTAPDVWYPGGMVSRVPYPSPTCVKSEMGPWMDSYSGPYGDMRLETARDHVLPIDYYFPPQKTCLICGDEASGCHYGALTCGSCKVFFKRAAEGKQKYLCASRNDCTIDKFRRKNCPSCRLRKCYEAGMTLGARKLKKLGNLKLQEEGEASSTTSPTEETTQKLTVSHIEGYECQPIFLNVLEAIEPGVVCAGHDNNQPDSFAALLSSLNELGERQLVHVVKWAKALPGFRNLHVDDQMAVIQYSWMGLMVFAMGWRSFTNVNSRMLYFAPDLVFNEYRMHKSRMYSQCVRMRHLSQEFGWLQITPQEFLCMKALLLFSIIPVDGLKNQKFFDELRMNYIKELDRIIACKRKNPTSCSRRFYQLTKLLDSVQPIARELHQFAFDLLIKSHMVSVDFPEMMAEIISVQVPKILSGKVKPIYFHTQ
Assay: Assessment of AR proteolytic activity (Western blotting of LNCap cell lysates)
Assay type: cell-based
Conditions: 24 hours of treatment, Western blotting quantified with Image J
Experimental: Assessment of AR Proteolytic Activity
Androgen receptor (AR) proteolytic activity of the compound according to the present invention was evaluated as follows: Specifically, 5.5×10^5 LNCap cells were injected into each well of a 6-well plate. […] After 24 hours of treatment, cells were collected and lysed using RIPA Lysis buffer (50 mM Tris-HCl, pH7.5, 150 mM NaCl, 1% Triton X-100, 2 mM EDTA, 0.1% SDS, 0.5% sodium deoxycholate and protease inhibitor cocktail) to make cell lysates. Western blotting was performed, and the results were quantified using Image J program.

SMILES | Degradation (1 μM treated in LNCaP, % AR remaining)
CC1(C)C(NC(=O)c2ccc(C#CCN3CCC4(CC3)CN(c3ccc5c(=O)n(C6CCC(=O)NC6=O)nnc5c3)C4)nc2)C(C)(C)C1Oc1ccc(C#N)c(Cl)c1 (stereo not shown) [Example 181, N-((1r,3r)-3-(3-chloro-4-cyanophenoxy)-2,2,4,4-tetramethylcyclobutyl)-6-(3-(2-(3-(2,6-dioxopiperidin-3-yl)-4-oxo-3,4-dihydrobenzo[d][1,2,3]triazin-7-yl)-2,7-diazaspiro[3.5]nonan-7-yl)prop-1-yn-1-yl)nicotinamide] | 18%
CC1(C)C(NC(=O)c2ccc(N3CCC(CN4CCN(c5ccc6nnn(C7CCC(=O)NC7=O)c(=O)c6c5)CC4)CC3)nc2)C(C)(C)C1Oc1ccc(C#N)c(Cl)c1 (stereo not shown) [Example 162, N-((1r,3r)-3-(3-chloro-4-cyanophenoxy)-2,2,4,4-tetramethylcyclobutyl)-6-(4-((4-(3-(2,6-dioxopiperidin-3-yl)-4-oxo-3,4-dihydrobenzo[d][1,2,3]triazin-6-yl)piperazin-1-yl)methyl)piperidin-1-yl)nicotinamide] | 30%
CC1(C)C(NC(=O)c2ccc(C#CCN3CCC4(CC3)CN(c3ccc5nnn(C6CCC(=O)NC6=O)c(=O)c5c3)C4)nc2)C(C)(C)C1Oc1ccc(C#N)c(Cl)c1 (stereo not shown) [Example 182, N-((1r,3r)-3-(3-chloro-4-cyanophenoxy)-2,2,4,4-tetramethylcyclobutyl)-6-(3-(2-(3-(2,6-dioxopiperidin-3-yl)-4-oxo-3,4-dihydrobenzo[d][1,2,3]triazin-6-yl)-2,7-diazaspiro[3.5]nonan-7-yl)prop-1-yn-1-yl)nicotinamide] | 16%
CC1(C)C(NC(=O)c2ccc(C#CCN3CCN(c4ccc5c(=O)n(C6CCC(=O)NC6=O)nnc5c4)CC3)nc2)C(C)(C)C1Oc1ccc(C#N)c(Cl)c1 (stereo not shown) [Example 177, N-((1r,3r)-3-(3-chloro-4-cyanophenoxy)-2,2,4,4-tetramethylcyclobutyl)-6-(3-(4-(3-(2,6-dioxopiperidin-3-yl)-4-oxo-3,4-dihydrobenzo[d][1,2,3]triazin-7-yl)piperazin-1-yl)prop-1-yn-1-yl)nicotinamide] | 56%
N#Cc1ccc(O[C@H]2CC[C@@H](NC(=O)c3ccc(N4CCC(CN5CC6(CCN(c7ccc8c(=O)n(C9CCC(=O)NC9=O)nnc8c7)CC6)C5)CC4)nc3)CC2)cc1Cl (stereo partly shown) [Example 167, N-((1r,4r)-4-(3-chloro-4-cyanophenoxy)cyclohexyl)-6-(4-((7-(3-(2,6-dioxopiperidin-3-yl)-4-oxo-3,4-dihydrobenzo[d][1,2,3]triazin-7-yl)-2,7-diazaspiro[3.5]nonan-2-yl)methyl)piperidin-1-yl)nicotinamide] | 19%
CC1(C)C(NC(=O)c2ccc(N3CCC4(CC3)CN(CC3CCN(c5ccc6c(=O)n(C7CCC(=O)NC7=O)nnc6c5)CC3)C4)nc2)C(C)(C)C1Oc1ccc(C#N)c(Cl)c1 (stereo not shown) [Example 173, N-((1r,3r)-3-(3-chloro-4-cyanophenoxy)-2,2,4,4-tetramethylcyclobutyl)-6-(2-((1-(3-(2,6-dioxopiperidin-3-yl)-4-oxo-3,4-dihydrobenzo[d][1,2,3]triazin-7-yl)piperidin-4-yl)methyl)-2,7-diazaspiro[3.5]nonan-7-yl)nicotinamide] | 9%
CC1(C)C(NC(=O)c2ccc(N3CC[C@H](CN4CC5(CCN(c6ccc7nnn(C8CCC(=O)NC8=O)c(=O)c7c6)CC5)C4)C3)nc2)C(C)(C)C1Oc1ccc(C#N)c(Cl)c1 (stereo partly drawn) [Example 186, N-((1r,3R)-3-(3-chloro-4-cyanophenoxy)-2,2,4,4-tetramethylcyclobutyl)-6-((3R)-3-((7-(3-(2,6-dioxopiperidin-3-yl)-4-oxo-3,4-dihydrobenzo[d][1,2,3]triazin-6-yl)-2,7-diazaspiro[3.5]nonan-2-yl)methyl)pyrrolidin-1-yl)nicotinamide] | 11%
